The values that follow come from US11351157B2, “Treatment of immunological disease using berberine nanoparticles” (Icahn School of Medicine at Mount Sinai, priority 2016, dated 2022).

Like-named read-outs stand apart in the source and are kept apart here.

For one data set, the system named is peanut-specific IgE. Nature of the data set: Peanut-specific IgE in serum of peanut-sensitized mice (ELISA). As to conditions: two oral courses, vs Sham. The format is in vivo, C3H/HeJ mice. An excerpt: Six-week-old female C3H/HeJ mice purchased from the Jackson Laboratory (Bar Harbor, Me.) were maintained in pathogen-free facilities at the Mount Sinai vivarium on peanut-free chow according to standard guidelines for the care and use of animals. Institute of Laboratory Animal Resources Commission of Life Sciences NRC. Guide for the Care and Use of Laboratory Animals: National Academic Press, 1996. […] Some mice were sensitized to egg white (EW) using a similar protocol. Subsequently, daily oral treatment with BBR-nanoparticles was administered in 4-week and 2-week phases with an interval of 2 weeks at times indicated. Mice were periodically challenged with systemic and oral challenges at approximately 6 week intervals, as indicated. In some experiments mice were given intraperitoneal injections of 100 μg of anti-CD8 or anti-IFNγ antibodies, one day prior and then twice weekly during treatment period. Microtitre plates were coated with defatted protein extracts of peanut or egg white (sample wells) and rat anti-mouse IgE (reference wells) and held overnight at 4° C. After washing three times, plates were blocked for 2 hours at room temperature with 2% BSA-PBS. After three washes plates were incubated with diluted serum samples overnight at 4° C. […] Total IgA, peanut specific IgG1 and IgG2a levels were measured as described in a previous publication. […]

The next data set has as its system human B cells. As to conditions: cited from earlier work; for IgE production by human B cells: human B cells / U266 cells.
In data set [1] the test system is peripheral blood mononuclear cells (PBMCs). The conditions noted are these: cited from earlier work; for IgE production by PBMCs: PBMCs from patients with food allergy.
For data set [2] the following is noted: in vivo; cited from earlier work.
Another data set concerns P-glycoprotein. The conditions noted are these: mediated by P-glycoprotein; cited from earlier work.
Data set [3] addresses T1, mIgE (membrane-bound IgE) (Homo sapiens, UniProt P01854).
T1 construct: host or cells: endogenous mIgE on IgE-lineage B cells of human trial subjects
The conditions noted are these: clinical trials; cited from earlier work.

T1 sequence (P01854 whole entry): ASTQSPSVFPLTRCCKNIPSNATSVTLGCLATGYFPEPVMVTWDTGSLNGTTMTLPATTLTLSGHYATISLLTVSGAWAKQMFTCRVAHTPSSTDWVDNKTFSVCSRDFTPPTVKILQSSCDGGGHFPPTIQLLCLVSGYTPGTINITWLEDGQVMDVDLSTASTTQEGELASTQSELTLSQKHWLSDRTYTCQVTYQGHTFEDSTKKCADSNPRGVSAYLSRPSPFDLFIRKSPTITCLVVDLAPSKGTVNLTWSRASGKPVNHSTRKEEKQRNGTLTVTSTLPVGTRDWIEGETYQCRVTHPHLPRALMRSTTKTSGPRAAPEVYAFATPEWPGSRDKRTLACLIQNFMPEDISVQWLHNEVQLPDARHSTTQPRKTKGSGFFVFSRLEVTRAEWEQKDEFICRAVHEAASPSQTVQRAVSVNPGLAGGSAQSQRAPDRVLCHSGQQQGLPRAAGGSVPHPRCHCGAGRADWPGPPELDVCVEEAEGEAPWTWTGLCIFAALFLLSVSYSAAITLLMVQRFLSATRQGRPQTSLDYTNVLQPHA
T1 sequence (P11912 33-226 partner): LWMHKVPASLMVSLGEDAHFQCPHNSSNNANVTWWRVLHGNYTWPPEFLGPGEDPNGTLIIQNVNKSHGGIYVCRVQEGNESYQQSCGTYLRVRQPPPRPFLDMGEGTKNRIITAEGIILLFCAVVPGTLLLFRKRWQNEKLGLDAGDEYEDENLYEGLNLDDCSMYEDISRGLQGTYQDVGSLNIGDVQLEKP
T1 sequence (P40259 29-229 partner): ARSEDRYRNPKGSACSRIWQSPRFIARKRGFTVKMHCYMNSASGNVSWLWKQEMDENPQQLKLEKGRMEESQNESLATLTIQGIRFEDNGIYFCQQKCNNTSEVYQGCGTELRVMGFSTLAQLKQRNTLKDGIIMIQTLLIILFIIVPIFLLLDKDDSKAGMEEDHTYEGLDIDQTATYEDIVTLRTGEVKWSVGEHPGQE

For `COc1ccc2cc3[n+](cc2c1OC)CCc1cc2c(cc1-3)OCO2` [berberine, Berberine], the “Peanut-specific IgE” value with peanut-specific IgE is recorded as “not”. Further, in the data set with human B cells, the “IC50 of IgE production” value was 0.1962 µg/mL and the “IgE production by human B cells” value is recorded as “significant reduction”. The “IgE production by human B cells” value in the data set on human B cells (listed as Berberine) is “significantly reduced”. Also, in data set [1], the “IgE production by PBMCs” value was “significant reduction” and the “Cytotoxicity of inhibition in PBMCs” value is given as “non-cytotoxic”. In addition, the “IgE production by PBMCs” value in data set [1] (listed as Berberine) was “significantly reduced”. In data set [2], the “Berberine taken up by the gastrointestinal tract” value was “less than 5%” and the Bioavailability entry is “less than 1%”. The “Rate of efflux from intestinal epithelial cells” value in the data set with P-glycoprotein is recorded as “up to 95%”.

B1: quilizumab: mIgE (membrane-bound IgE) targeting antibody studied in clinical trials (antibody, chains of the INN, looked up, V domains shown)
VH: EVQLVESGGGLVQPGGSLRLSCAASGFTFSDYGIAWVRQAPGKGLEWVAFISDLAYTIYYADTVTGRFTISRDNSKNTLYLQMNSLRAEDTAVYYCARDNWDAMDYWGQGTLVTVSS
VL: DIQMTQSPSSLSASVGDRVTITCRSSQSLVHNNANTYLHWYQQKPGKAPKLLIYKVSNRFSGVPSRFSGSGSGTDFTLTISSLQPEDFATYYCSQNTLVPWTFGQGTKVEIK
Regarding B1, in data set [3], the “Clinical benefit in early human studies” value is listed as “without any significant clinical benefit” and the “IgE reduction in early human studies” value was “only moderate IgE reduction”.
